According to patent US9693996B1, “Chlorophyll c containing degranulation suppressor” (MARUHA NICHIRO CORPORATION, priority 2011, dated 2017):

What was measured:
[1] = test system: rat basophile derived cell line RBL-2H3; test: Test for evaluating degranulation suppressing activity (β-hexosaminidase release); type: cell-based; conditions: for degranulation suppressing activity (percent degranulation): RBL-2H3 sensitized with anti DNP-IgE, stimulated with DNP-albumin, control group taken as 100%
Protocol: First, the rat basophile derived cell line RBL-2H3 was diluted with a DMEM medium (product of SIGMA) containing 10% fetal bovine serum (hereinafter referred to as FBS) to give a density of 2.5×10^5 cells/ml, dispensed on a 24-well culture plate in a volume of 1 ml/well, and cultured overnight at 37° C. under conditions of 5% CO2 and 100% humidity. After removing the culture supernatant, the cell surfaces were washed with 1 ml/well of a phosphate buffer solution (hereinafter referred to as PBS) and an anti DNP-IgE solution prepared by diluting mouse monoclonal anti-dinitrophenol (product of SIGMA) with a DMEM medium to give a concentration of 50 ng/ml was added in a volume of 500 μl/well, followed by incubation for 2 hours at 37° C. under conditions of 5% CO2 and 100% humidity. After the end of incubation, the anti DNP-IgE solution was removed and washing was done using 1.5 ml/well of a buffer solution containing 137 mM NaCl (product of nacalai tesque), 2.7 mM KCl (JUNSEI CHEMICAL), 1.8 Mm CaCl2.2H2O (JUNSEI CHEMICAL), 1 mM MgCl2. 6H2O (JUNSEI CHEMICAL), 5.6 mM glucose (Wako Pure Chemical Industries), 20 mM HEPES (Wako Pure Chemical Industries) and 0.1% BSA (the buffer solution being a modified Tyrode buffer which is hereinafter referred to as “MT buffer”); this procedure was repeated twice. Next, an MT buffer containing 0.5% of a chlorophyll, i.e., an authentic sample of chlorophyll a (product of DHI), an authentic sample of chlorophyll b (product of DHI), an authentic sample of chlorophyll c2 (product of DHI), or an authentic sample of chlorophyll d (purified from cyanobacteria adhering to surfaces of red algae, by referring to Non-Patent Documents 10 and 11, for example) was added in a volume of 490 μl/well and incubation was conducted for 10 minutes at 37° C. under conditions of 5% CO2 and 100% humidity. To a control group that would not undergo suppression of the degranulation reaction, an MT buffer containing 0.5% ethanol was added. After 10-min incubation, Albumin, dinitrophenyl (product of SIGMA) was added to give a concentration of 200 ng/ml and the mixture was stirred to homogeneity, followed by 30-min incubation at 37° C. under conditions of 5% CO2 and 100% humidity. After the end of incubation, the mixture was ice-cooled for 10 minutes to quench the reaction and 500 μl of the supernatant was recovered. To the cells from which the culture supernatant was recovered, Cell Lysate buffer (product of SIGMA) was added in a volume of 500 μl/well and thereafter an ultrasonic cell disrupter was used to form a homogeneous cell lysate which was recovered in a volume of 500 μl. The culture supernatant and the cell lysate were dispensed on a 96-well plate, each in a volume of 50 μl/well, and incubated at 37° C. for 5 minutes. After the end of incubation, an aqueous solution containing 100 mM citric acid and 3.3 mM p-nitrophenyl-2-acetoamido-2-deoxy-β-D-glucopyranoside (product of Wako Pure Chemical Industries) (the aqueous solution is hereinafter referred to as a “substrate solution”) was added in a volume of 100 μl/well and after thorough mixing, incubation was conducted at 37° C. for 25 minutes. After the end of incubation, an aqueous solution containing 2 M glycine (the aqueous solution is hereinafter referred to as a “reaction quencher”) was added in a volume of 100 μl/well and thorough mixing was conducted to quench the reaction; thereafter, a plate reader was used to measure the absorbance at 405 nm. Through this sequence of reactions, degranulation occurred and the activity of β-hexosaminidase contained in the granules was measured to calculate the proportion of granules released from the cells to the culture supernatant. […]

[2] = test system: rat basophile derived cell line RBL-2H3; test: Test for evaluating percent cell survival (WST-1); type: cell-based; conditions: RBL-2H3, 40 min incubation
Protocol: The rat basophile derived cell line RBL-2H3 diluted to the same concentration as in Example 1 was dispensed on a 96-well culture plate in a volume of 0.1 ml/well and cultured overnight at 37° C. under conditions of 5% CO2 and 100% humidity. After removing the culture supernatant, the cell surfaces were washed with 1 ml/well of PBS and then an MT buffer containing an authentic sample of chlorophyll c2 at the same concentrations by dry weight as in Example 1 was added in a volume of 100 μl/well and incubation was conducted for 40 minutes at 37° C. under conditions of 5% CO2 and 100% humidity. To a control group that would not undergo suppression of the degranulation reaction, an MT buffer containing 0.5% ethanol was added. After 40-min incubation, WST-1 reagent (product of DOJINDO) was added in a volume of […] and the mixture was incubated for 30 minutes at 37° C. under conditions of 5% CO2 and 100% humidity. After the end of incubation, the mixture was left to stand at room temperature for 10 minutes and then the absorbance at 450 nm was measured to evaluate the percent cell survival.

Compound | degranulation suppressing activity (percent degranulation) [1] | percent cell survival (cytotoxicity) [2] | degranulation suppressing activity (percent degranulation) ([1]; listed as Fr. J) | concentration at which degranulation suppressing activity was already apparent ([1]; by dry weight, RBL-2H3, FIG. 1)
C=Cc1c(C)c2cc3nc(c4c5[n-]c(cc6nc(cc1[n-]2)C(C)=C6CC)c(C)c5C(=O)[C@@H]4C(=O)OC)[C@@H](CCC(=O)OC/C=C(\C)CCC[C@H](C)CCC[C@H](C)CCCC(C)C)[C@@H]3C.[Mg+2] [chlorophyll a, reference compound] | no degranulation suppressing activity at all | – | – | –
C=Cc1c(C)c2cc3nc(c4c5[n-]c(cc6nc(cc1[n-]2)C(C=O)=C6CC)c(C)c5C(=O)[C@@H]4C(=O)OC)[C@@H](CCC(=O)OC/C=C(\C)CCC[C@H](C)CCC[C@H](C)CCCC(C)C)[C@@H]3C.[Mg+2] [chlorophyll b, reference compound] | no degranulation suppressing activity at all | – | – | –
C=Cc1c(C)c2[nH]c1=CC1=NC(=CC3=C(C)C4=C([O-])[C@H](C(=O)OC)C(=C5N=C(C=2)C(C)=C5/C=C/C(=O)[O-])C4=N3)C(CC)=C1C.[Mg+2] [chlorophyll c1] | found to exhibit the degranulation suppressing activity | neither the cell group treated with the authentic sample of chlorophyll c1 nor the cell group treated with the authentic sample of chlorophyll c3 was recognized to experience a drop in the percent cell survival | – | –
C=CC1=C(C)C2=NC1=CC1=C(C)C3=C([O-])[C@H](C(=O)OC)C(=C4N=C(C=c5[nH]c(c(C=C)c5C)=C2)C(C)=C4/C=C/C(=O)[O-])C3=N1.[Mg+2] [chlorophyll c2] | exhibit the degranulation suppressing activity in a dose-dependent manner | none of the cell groups treated with the authentic sample of chlorophyll c2 experienced a drop in percent cell survival | found to have the evaluating degranulation suppressing activity | about 0.05 μg/ml
C=CC1=C(C)C2=CC3=NC(=C4C5=NC(=C(C)C5=C([O-])[C@@H]4C(=O)OC)C=c4[nH]c(c(C(=O)OC)c4C=C)=CC1=N2)C(/C=C/C(=O)[O-])=C3C.[Mg+2] [chlorophyll c3] | found to exhibit the degranulation suppressing activity | neither the cell group treated with the authentic sample of chlorophyll c1 nor the cell group treated with the authentic sample of chlorophyll c3 was recognized to experience a drop in the percent cell survival | – | –
CCC1=C(C)c2cc3[n-]c(cc4nc(c5c6[n-]c(cc1n2)c(C)c6C(=O)[C@@H]5C(=O)OC)[C@@H](CCC(=O)OC/C=C(\C)CCC[C@H](C)CCC[C@H](C)CCCC(C)C)[C@@H]4C)c(C)c3C=O.[Mg+2] [chlorophyll d, reference compound] | no degranulation suppressing activity at all | – | – | –
